# Measurements: EPA's ToxRefDB 2
# What was measured:
# dog [1] = conditions: Chronic toxicity, beagle, Oral, Feed, dose end: 52 week, group: systemic
# rat [2] = conditions: Combined chronic toxicity/carcinogenicity, sprague dawley, Oral, Feed, dose end: 104 week, group: systemic
# dog [3] = conditions: Subchronic oral toxicity in nonrodent, beagle, Feed, dose end: 90 day, group: systemic, systemic / in life observation / body weight / body weight gain + systemic / in life observation / clinical signs / emaciation + systemic / …
# rat [4] = conditions: Multigenerational reproductive toxicity study, sprague dawley, Oral, Feed, dose end: 2 generation
# mouse [5] = conditions: Subchronic oral toxicity in rodents, cd1, Feed, dose end: 91 day, group: systemic
# mouse [6] = conditions: Combined chronic toxicity/carcinogenicity, cd1, Oral, Feed, dose end: 80 week, group: systemic
# rat [7] = conditions: Subchronic oral toxicity in rodents, other, Feed, dose end: 90 day, group: systemic
# [8] = systemic / in life observation / body weight / body weight + systemic / in life observation / body weight / body weight gain + systemic / in…
# [9] = systemic / clinical chemistry / globulins / globulins + systemic / pathology gross / full gross necropsy / lymp lymphoma malignant …
# [10] = systemic / pathology microscopic / liver / hypertrophy
# [11] = group: offspring, systemic / in life observation / body weight / offspring (pup) weight
# [12] = group: parental, systemic / in life observation / body weight / body weight gain + systemic / in life observation / body weight / body weight
# [13] = group: reproductive, reproductive / reproductive performance / gestational length / gestational length
# [14] = systemic / pathology microscopic / liver / hypertrophy + systemic / clinical chemistry / albumin / albumin + systemic / clinical chemistry…
# [15] = systemic / pathology gross / ear / misshapen
# [16] = systemic / organ weight / liver / absolute + systemic / organ weight / liver / relative to body weight + systemic / clinical chemistry / …
# [17] = systemic / organ weight / liver / absolute + systemic / organ weight / liver / relative to body weight + systemic / in life observation / …
structure (smiles),measurement,setting,value
CCOCn1c(-c2ccc(Cl)cc2)c(C#N)c(Br)c1C(F)(F)F [Chlorfenapyr],LOAEL,dog [1]; systemic / in life observation / body weight / body weight + systemic / in life observation / body weight / body weight gain,8.7 mg/kg/day
same,LEL,dog [1]; [8],8.7 mg/kg/day
same,NEL,dog [1]; [8],4 mg/kg/day
same,NOAEL,dog [1]; [8],4 mg/kg/day
same,NEL,rat [2]; [9],30.8 mg/kg/day
same,NOAEL,rat [2]; [9],2.9 mg/kg/day
same,LOAEL,rat [2]; [10],15 mg/kg/day
same,LEL,dog [3],6.7 mg/kg/day
same,LOAEL,dog [3],6.7 mg/kg/day
same,NEL,dog [3],3.9 mg/kg/day
same,NOAEL,dog [3],3.9 mg/kg/day
same,LEL,rat [4]; [11],22 mg/kg/day
same,LOAEL,rat [4]; [11],22 mg/kg/day
same,NEL,rat [4]; [11],5 mg/kg/day
same,NOAEL,rat [4]; [11],5 mg/kg/day
same,NEL,"rat [4]; group: parental, systemic / in life observation / body weight / body weight + systemic / in life observation / body weight / body weight gain",5 mg/kg/day
same,LOAEL,"rat [4]; group: parental, systemic / in life observation / body weight / body weight gain",22 mg/kg/day
same,LEL,rat [4]; [12],22 mg/kg/day
same,NOAEL,rat [4]; [12],5 mg/kg/day
same,LEL,rat [4]; [13],44 mg/kg/day
same,LOAEL,rat [4]; [13],> 44 mg/kg/day
same,NEL,rat [4]; [13],22 mg/kg/day
same,NOAEL,rat [4]; [13],≥ 44 mg/kg/day
same,LOAEL,mouse [5]; [10],14.8 mg/kg/day
same,NEL,mouse [5]; [14],7.1 mg/kg/day
same,NOAEL,mouse [5]; [14],7.1 mg/kg/day
same,LEL,mouse [5]; systemic / pathology microscopic / liver / hypertrophy + systemic / hematology / lymphocyte / lymphocyte + systemic / hematology / …,14.8 mg/kg/day
same,LOAEL,mouse [6]; systemic / in life observation / clinical signs / scabbing + systemic / pathology microscopic / brain / vacuolization,16.6 mg/kg/day
same,NOAEL,mouse [6]; systemic / in life observation / clinical signs / scabbing + systemic / pathology microscopic / brain / vacuolization + systemic / …,2.8 mg/kg/day
same,LEL,mouse [6]; [15],2.8 mg/kg/day
same,NEL,mouse [6]; [15],< 2.8 mg/kg/day
same,NEL,rat [7]; [16],24.1 mg/kg/day
same,NOAEL,rat [7]; [16],24.1 mg/kg/day
same,LEL,rat [7]; [17],48.4 mg/kg/day
same,LOAEL,rat [7]; [17],48.4 mg/kg/day
